# Test results as given in the supplement of paper PMC10307832.
# Compound: C[C@@H](Oc1cc(-c2cnn(C3CCNCC3)c2)cnc1N)c1c(Cl)ccc(F)c1Cl [Crizotinib]
# Test: relative viability (nuclei count vs DMSO), 5 days (fraction); higher = more cells survive
# Settings: 0.3162 µM
# Summary of the method: (§1)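 MetaXpress counted nuclei in 4× images of lung cancer cell lines that had been fixed, permeabilised and Hoechst-stained in one step. Before that, cells in 1536-well plates were kept overnight at 37 °C, pinned with five √10-spaced library-drug doses on vehicle-anchored plates, and cultured 5 days without medium change. Viability takes treated-well nuclei over vehicle-well nuclei and uses the median across plates. Plates were accepted only at control CV below 25% and at least one doubling.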
row,Cell Line,relative viability
1,NCI-H322M,0.922
2,NCI-H358,0.868
3,NCI-H460,0.991
4,NCI-H520,0.836
5,NCI-H596,0.98
6,NCI-H647,0.783
7,NCI-H650,0.697
8,NCI-H661,1.06
9,NCI-H1563,1
10,NCI-H1623,0.89
11,NCI-H1703,0.968

# Same assay, conditions: 1 µM
row,Cell Line,relative viability
1,201T,1
2,A549,0.987
3,A-427,1.01
4,ABC-1,0.982
5,BEN,1.02
6,CAL-12T,0.981
7,COR-L23,0.885
8,COR-L 105,0.932
9,Calu-6,1.01
10,ChaGo-K-1,0.976
11,EBC-1,0.199
12,EKVX,0.982
13,EMC-BAC-2,0.923
14,EPLC-272H,0.955
15,H3255,1.03
16,HARA,1.02
17,HCC-15,0.974
18,HCC-44,0.944
19,HCC-78,0.778
20,HCC-366,1.07
21,HCC-827,1.03

row,Cell Line,relative viability
1,HOP-62,1.04
2,IA-LM,0.888
3,LCLC-97TM1,0.993
4,LCLC-103H,1
5,LOU-NH91,0.985
6,LU99A,0.969
7,LXF-289,1.01
8,NCI-H23,0.904
9,NCI-H322M,0.955
10,NCI-H358,0.949
11,NCI-H441,1.02
12,NCI-H460,1.03
13,NCI-H520,0.915
14,NCI-H522,0.893
15,NCI-H596,0.967
16,NCI-H650,1.03
17,NCI-H661,1
18,NCI-H1299,0.976
19,NCI-H1563,1.06
20,NCI-H1623,0.891
21,NCI-H1703,1.14

# Same assay, conditions: 1 µM; anchor plate
row,Cell Line,relative viability
1,201T,1.01
2,A549,0.755
3,A-427,0.906
4,ABC-1,1.18
5,BEN,0.86
6,CAL-12T,0.683
7,COR-L23,0.623
8,COR-L 105,0.826
9,Calu-6,0.768
10,ChaGo-K-1,1.11
11,EBC-1,0.192
12,EKVX,0.967
13,EMC-BAC-2,0.767
14,EPLC-272H,0.912
15,H3255,0.934
16,HARA,1.04
17,HCC-15,0.813
18,HCC-44,0.785
19,HCC-78,0.348
20,HCC-366,0.466
21,HOP-62,1

row,Cell Line,relative viability
1,IA-LM,0.79
2,LC-2-ad,0.458
3,LCLC-97TM1,0.338
4,LCLC-103H,1.01
5,LOU-NH91,0.729
6,LU99A,0.547
7,LXF-289,0.809
8,NCI-H23,0.546
9,NCI-H322M,0.93
10,NCI-H358,0.574
11,NCI-H441,0.726
12,NCI-H460,0.905
13,NCI-H520,0.764
14,NCI-H596,0.989
15,NCI-H647,1.07
16,NCI-H650,0.705
17,NCI-H661,0.993
18,NCI-H1299,0.932
19,NCI-H1563,0.843
20,NCI-H1703,0.728

# Compound: CC(C)C[C@H](NC(=O)[C@H](CCc1ccccc1)NC(=O)CN1CCOCC1)C(=O)N[C@@H](Cc1ccccc1)C(=O)N[C@@H](CC(C)C)C(=O)[C@@]1(C)CO1 [Carfilzomib]
# Test: as above
# Settings: 0.001 µM
# Summary of the method: as §1
row,Cell Line,relative viability
1,201T,0.957
2,A549,0.967
3,A-427,0.936
4,ABC-1,0.92
5,BEN,0.902
6,CAL-12T,0.933
7,COR-L23,1.06
8,COR-L 105,1.06
9,Calu-6,0.992
10,ChaGo-K-1,0.884
11,EBC-1,1.01
12,EKVX,0.913
13,EMC-BAC-2,0.957
14,EPLC-272H,0.845
15,H3255,0.973
16,HARA,0.996
17,HCC-15,0.954
18,HCC-44,0.988
19,HCC-78,0.839
20,HCC-366,0.992
21,HCC-827,1.05
22,HOP-62,1.04
23,IA-LM,0.884

row,Cell Line,relative viability
1,LC-2-ad,1.04
2,LCLC-97TM1,0.907
3,LCLC-103H,0.923
4,LK-2,0.937
5,LOU-NH91,0.962
6,LU99A,0.991
7,LXF-289,0.992
8,NCI-H23,0.847
9,NCI-H322M,0.911
10,NCI-H358,0.926
11,NCI-H441,1.2
12,NCI-H460,0.929
13,NCI-H520,0.994
14,NCI-H522,0.889
15,NCI-H596,0.951
16,NCI-H647,0.873
17,NCI-H650,0.811
18,NCI-H661,0.986
19,NCI-H1299,1.03
20,NCI-H1563,0.945
21,NCI-H1623,0.972
22,NCI-H1703,0.839

# Same assay, conditions: 0.003162 µM
row,Cell Line,relative viability
1,201T,1.01
2,A549,1.03
3,A-427,1.15
4,ABC-1,0.75
5,BEN,1.09
6,CAL-12T,1.19
7,COR-L23,1.13
8,COR-L 105,0.931
9,Calu-6,1.09
10,ChaGo-K-1,1.05
11,EBC-1,1.09
12,EKVX,1
13,EMC-BAC-2,1.18
14,EPLC-272H,1.22
15,H3255,1.09
16,HARA,1.09
17,HCC-15,1.07
18,HCC-44,0.996
19,HCC-78,1.09
20,HCC-366,1.02
